In general, Kd refers to the constant that tells how readily two partners part at equilibrium. Read a low Kd as higher affinity.

The target of series [1] is T1, BSA (Bos taurus, UniProt P02769).
T1 construct: purchased Acros Chemical
The experiment in a line: Absorption titration with BSA, 1:1 binding model (dissociation constant). On the set-up: species or system bovine. The conditions noted are these: absorption titration in aqueous solution. An excerpt:
(§1) With the 1:1 binding model from fitting of absorption titration spectra, the dissociation constant for BSA was estimated to be 9.35×10^−6 M upon titration with BSA in aqueous solution. In sharp contrast, there is no response to BSA in aqueous solution for 1b, as its binding to BSA requires addition of surfactant SDS or graphene.

In series [2] the target is T2, formaldehyde dehydrogenase (Pseudomonas putida, UniProt P46154).
T2 construct: purchased SIGMA
T2 sequence (P46154 whole entry): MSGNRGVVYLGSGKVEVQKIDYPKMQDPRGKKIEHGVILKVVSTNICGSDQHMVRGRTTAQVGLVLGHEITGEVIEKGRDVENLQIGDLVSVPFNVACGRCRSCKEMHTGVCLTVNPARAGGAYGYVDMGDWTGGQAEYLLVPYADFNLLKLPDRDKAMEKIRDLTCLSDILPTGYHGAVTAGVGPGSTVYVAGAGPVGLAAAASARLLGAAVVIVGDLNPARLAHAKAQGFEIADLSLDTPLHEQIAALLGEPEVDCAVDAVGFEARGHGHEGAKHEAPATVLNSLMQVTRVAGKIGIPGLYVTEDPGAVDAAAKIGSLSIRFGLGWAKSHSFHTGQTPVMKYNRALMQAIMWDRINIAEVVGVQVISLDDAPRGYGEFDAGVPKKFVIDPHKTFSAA
The experiment in a line: Fluorescence response to formaldehyde dehydrogenase in PBS. Type of series: binding. On the procedure:
(§2) The fluorescence enhancement upon binding BSA reached over 140-fold, which was quite large in comparison with those being reported. The detection limit was 1 μg/mL of BSA (signal-to-noise ratio was 3). The fluorescence response of DNSA-SQ to other proteins in PBS was also investigated. […] The observed specific binding to site I can be attributed to hydrophobic pockets of BSA in its structure.

The next series has as its system lipase. Kind of series: Fluorescence response to lipase in PBS. Type of series: binding. As to the method: as §2
Series [3] relates to BSA injected into zebrafish embryos. Kind of series: DNSA-SQ labeling of live developing zebrafish embryos. In kind it is in vivo. An excerpt: (§3) The most attractive application for protein sensing is labeling and imaging in living organisms. Zebrafish have recently become an important model organism for the study of vertebrate imaging. This is because the embryos of zebrafish are transparent, allowing for clear observation of their organs without the need for dissection. The optical transparancy of zebrafish, therefore, provides a convenient organism for detection of ions by fluorescence microscopy. No published reports are found on the use of zebrafish for BSA fluorescence microscopy. Herein, DNSA-SQ was examined in developing zebrafish for its applicability. DNSA-SQ labeling was examined in developing zebrafish by adding DNSA-SQ to fish tank water (treatment lasted for one hour at room temperature). There was no labeling in control (i.e. without BSA supplement) embryos at 2.5 hours post fertilization (hpf, FIG. 20B), 36 hpf and 73 hpf (data not shown). […] At 73 hpf, the labeling was detected in the yolk and yolk extension (FIG. 20D), eye (FIG. 20E) and pigmented cells in the body trunk and tail regions (FIGS. 20G and H). […] The DNSA-SQ labeling pattern show good biocompatibility, excellent turn-on fluorescence.

The next series has as its target T3, fibrinogen (Homo sapiens, UniProt P02671+P02675+P02679).
T3 sequence (P02671 20-629 limits assumed): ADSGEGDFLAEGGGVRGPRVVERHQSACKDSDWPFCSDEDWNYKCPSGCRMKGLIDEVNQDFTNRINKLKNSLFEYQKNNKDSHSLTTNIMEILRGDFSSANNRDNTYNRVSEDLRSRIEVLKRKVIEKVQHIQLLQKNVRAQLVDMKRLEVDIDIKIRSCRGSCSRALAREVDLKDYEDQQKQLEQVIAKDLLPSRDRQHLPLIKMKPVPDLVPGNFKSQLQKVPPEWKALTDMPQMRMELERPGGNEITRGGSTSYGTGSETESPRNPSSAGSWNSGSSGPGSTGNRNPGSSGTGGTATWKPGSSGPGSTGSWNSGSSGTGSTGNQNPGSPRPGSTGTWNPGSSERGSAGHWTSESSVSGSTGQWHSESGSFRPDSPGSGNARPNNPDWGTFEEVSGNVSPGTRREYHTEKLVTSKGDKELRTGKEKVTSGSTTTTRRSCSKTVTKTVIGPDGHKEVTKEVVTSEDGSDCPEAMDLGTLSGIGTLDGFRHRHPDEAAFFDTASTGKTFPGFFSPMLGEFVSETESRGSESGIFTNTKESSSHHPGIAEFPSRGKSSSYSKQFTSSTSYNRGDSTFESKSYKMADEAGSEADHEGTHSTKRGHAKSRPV
T3 sequence (P02675 31-491): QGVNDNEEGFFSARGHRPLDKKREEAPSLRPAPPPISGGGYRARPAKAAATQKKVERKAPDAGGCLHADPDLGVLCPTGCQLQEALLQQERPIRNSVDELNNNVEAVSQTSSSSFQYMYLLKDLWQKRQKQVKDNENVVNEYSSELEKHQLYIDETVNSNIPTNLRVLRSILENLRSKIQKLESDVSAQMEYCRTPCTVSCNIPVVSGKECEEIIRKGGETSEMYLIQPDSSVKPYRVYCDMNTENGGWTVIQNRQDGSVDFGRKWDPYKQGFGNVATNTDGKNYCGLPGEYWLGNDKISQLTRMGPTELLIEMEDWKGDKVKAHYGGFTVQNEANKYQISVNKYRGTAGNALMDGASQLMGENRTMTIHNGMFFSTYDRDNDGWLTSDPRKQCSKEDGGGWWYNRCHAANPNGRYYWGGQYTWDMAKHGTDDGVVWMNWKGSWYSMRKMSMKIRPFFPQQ
T3 sequence (P02679 27-433 limits assumed): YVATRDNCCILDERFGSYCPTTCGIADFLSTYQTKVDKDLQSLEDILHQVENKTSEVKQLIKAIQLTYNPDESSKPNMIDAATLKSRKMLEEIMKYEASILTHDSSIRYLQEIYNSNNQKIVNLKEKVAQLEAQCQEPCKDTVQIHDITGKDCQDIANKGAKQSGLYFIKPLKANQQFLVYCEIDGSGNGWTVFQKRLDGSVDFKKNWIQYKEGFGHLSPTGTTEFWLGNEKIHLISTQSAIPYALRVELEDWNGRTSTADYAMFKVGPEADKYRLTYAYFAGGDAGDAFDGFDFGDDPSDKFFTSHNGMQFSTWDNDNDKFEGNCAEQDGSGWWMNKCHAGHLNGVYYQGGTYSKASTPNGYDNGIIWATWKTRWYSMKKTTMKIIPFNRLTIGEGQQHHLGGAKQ
The experiment in a line: Fluorescence response to fibrinogen in PBS. In kind it is binding. As to the method:
as §2

The next series concerns chymotrypsin. The experiment in a line: Fluorescence response to chymotrypsin in PBS. In kind it is binding. On the procedure: as §2
In series [4] the target is T1, BSA. Kind of series: Fluorescence response of DNSA-SQ to BSA in aqueous solution without aggregation agent. Type of series: binding, bovine. As to the method: as §1, §2
The nature of series [5]: Fluorescence quantum yield of the dye in aqueous solution. In kind it is physicochemical. Particulars: no protein. As to the method: NMR spectra were collected on a Varian 300 Gemini spectrometer. Mass spectrometric data were obtained on a HP1100LC/MSD mass spectrometry. HRMS data were performed on a TOF MS system. UV-Vis spectra were acquired on a Hewlett-Packard 8453 diode-array spectrometer. Fluorescence spectra were obtained on a HORIBA Jobin Yvon NanoLog spectrometer. The quantum yield of fluorescence of the sample was measured using bis(3-ethylbenzothiazol-2-ylidene)squaraine in ethanol (Φ=0.21) as a standard and calculated using equation (1): […]
Where Φunk is i the fluorescence quantum yield of the sample, Φstd is the fluorescence quantum yield of the standard, Iunk and Istd are the integrated emission intensities of the sample and the standard, respectively, Aunk and Astd are the absorbance of the sample and the standard at the excitation wavelength, respectively, and nunk and nstd are the refractive indexes of the corresponding solution.
In the presence of the anionic surfactant (sodium dodecyl sulfate, SDS) (1.7 mM or 0.05% wt), the fluorescence signals are further decreased by a factor of about 3. […] The emission signals at ˜684 nm is assigned to the monomeric 1b, as the fluorescence of squaraine dye typically has a small Stokes' shift (about 10-30 nm). […] Similar fluorescence enhancement is also observed from 1a and 1c after the addition of BSA. […]

The next series addresses T4, lysozyme (Gallus gallus, UniProt P00698).
T4 construct: purchased SIGMA
The experiment in a line: Fluorescence response to lysozyme in PBS. Type of series: binding. On the procedure:
as §2

Series [6] addresses T1, BSA. Kind of series: ESI travelling wave ion mobility mass spectrometry (TWIMS) of BSA-guest complexes. On the set-up: species or system bovine. The conditions noted are these: 15+ charge state. An excerpt:
Ion mobility mass spectrometry, when coupled with ESI, can produce an array of multiply charged gas-phase ions from protein molecules in solution which is related to the solution-phase folded and unfolded conformation of the protein. The structural measurement, namely, collision cross-section, can be calculated from the drift time of each ion. Herein we use travelling wave ion mobility mass spectrometry (TWIMS) to detect the change of the protein conformation after different site selective binding guests were added in BSA buffer solution. TWIMS was performed under the same conditions to ensure minimal error for compassion. […] As shown in FIG. 19(c), the ions of DP were generated through the tandem MS of intact complex ions at 15+. Taking 15+ charge state for example, the mobility peak drift time tD=6.41, 6.80, 6.67 and 6.54 ms for BSA, BSA+DP, BSA+DNSA-SQ and BSA+DNSA, respectively. The corresponding experimental collision cross-sections (CCS) are 4298, 4364, 4342 and 4320 Å2 using standard curve. […] This finding is consistent with the fluorescence change discussed above, particularly for the fluorescence enhancement by adding DP to BSA/DNSA-SQ.

A further series deals with T5, BSA site I and site II (Bos taurus, UniProt P02769).
T5 construct: purchased Acros Chemical
T5 sequence (P02769 25-607): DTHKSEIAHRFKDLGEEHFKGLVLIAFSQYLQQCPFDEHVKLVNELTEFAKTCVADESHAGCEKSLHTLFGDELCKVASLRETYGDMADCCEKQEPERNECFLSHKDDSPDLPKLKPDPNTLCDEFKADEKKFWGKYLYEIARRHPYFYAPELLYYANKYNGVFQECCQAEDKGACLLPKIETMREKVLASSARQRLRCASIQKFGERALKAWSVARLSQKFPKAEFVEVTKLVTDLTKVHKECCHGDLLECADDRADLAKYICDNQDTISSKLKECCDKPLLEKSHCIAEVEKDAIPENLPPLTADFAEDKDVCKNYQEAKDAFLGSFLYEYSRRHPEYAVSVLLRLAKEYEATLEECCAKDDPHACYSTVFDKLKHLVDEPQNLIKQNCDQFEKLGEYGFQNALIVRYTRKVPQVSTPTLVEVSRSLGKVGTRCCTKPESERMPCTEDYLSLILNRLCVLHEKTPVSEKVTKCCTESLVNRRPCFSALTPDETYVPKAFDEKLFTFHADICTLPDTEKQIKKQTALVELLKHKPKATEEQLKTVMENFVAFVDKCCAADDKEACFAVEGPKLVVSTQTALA
Kind of series: Site-selective ligand displacement from BSA/DNSA-SQ complex. Type of series: binding, bovine. An excerpt: The site-selective binding of BSA/DNSA-SQ was probed by employing a site selective binding ligand, which would result in decrease in fluorescence intensity when the squaraine dyes were displaced from a specific BSA binding site. […] The observed fluorescence increasing thus implies that the BSA conformation change as DP entered the site II, which stimulated interaction of BSA/DNSA-SQ at site I. It was noted that a squaraine dye can selectively bind BSA at site I (˜40%) and site II (˜60%) on the assumption of no dependency between Site I and II of BSA. Circular dichroism (CD) was also used to probe the proposed binding mechanism. Similar CD spectra usually represent a similar binding mode between the sensor and protein. […] Under the same conditions, the effect of DNSA-SQ on the CD spectrum of BSA was similar to that of DNSA. The result further supports that DNSA-SQ was binding to site I of BSA.
The response of a fluorescence probe at a specific site (such as site I), therefore, could also shed some light on the binding of the other site (e.g. site II). Study of this synergetic interaction between two binding sites could lead to improved understanding on the protein-dye interaction.

For a further series, the system named is trypsin. Kind of series: Fluorescence response to trypsin in PBS. In kind it is binding. On the procedure: as §2
Another series relates to zebrafish embryos/larvae. Kind of series: Toxicity to zebrafish embryos/larvae. Type of series: in vivo.
Description: as §3
Therefore DNSA-SQ was proving not toxic to the subjects. […]

Where [7] appears, read: dye in fish tank water, one hour, room temperature.

Each structure is given as a SMILES string.

T1 sequence (P02769 25-607): as above
T4 sequence (P00698 19-147): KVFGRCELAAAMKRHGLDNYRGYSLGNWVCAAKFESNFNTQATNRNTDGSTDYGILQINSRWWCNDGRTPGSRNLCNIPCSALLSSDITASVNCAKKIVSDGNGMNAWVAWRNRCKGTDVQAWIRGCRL

Take `CCN1C(=CC2=C([N-]S(=O)(=O)c3cccc4c(N(C)C)cccc34)C(=Cc3sc4ccccc4[n+]3CC)C2=O)Sc2ccccc21` [DNSA-SQ]: at BSA [1], binding was put at a Kd of 9.35 µM. The “fluorescence change with formaldehyde dehydrogenase” value in [2] is reported as “no obvious fluorescence change”. The “fluorescence change with lipase” value in the series on lipase is listed as “no obvious fluorescence change”. The “labeling of control embryos without BSA supplement” value in [3] (2.5, 36 and 73 hpf) was “no labeling”. In series [3] (setting [7]), the “labeling of BSA-injected embryos at 2.5 hpf” value is reported as “labeling of all dividing cells” and the “labeling of BSA-injected embryos at 73 hpf” value is “confined BSA labeling”. In series [3] (living zebrafish embryos), the cell membrane penetration result is “can easily penetrate through cell membranes”. The “fluorescence change with fibrinogen” value at fibrinogen is “no obvious fluorescence change”. For the same molecule, the “fluorescence change with chymotrypsin” value with chymotrypsin was “no obvious fluorescence change”. In addition, the “fluorescence enhancement upon binding BSA” value on BSA [4] (674 nm, no aggregation agent) was “over 140 fold”. For the same molecule, the “detection limit of BSA” value at BSA [4] (signal-to-noise ratio 3) amounted to 1 µg/mL. Further, in [5], the “fluorescence quantum yield φfl” value is listed as 1.0×10^−4. The “fluorescence change with lysozyme” value on lysozyme is on record as “no obvious fluorescence change”. The “mobility peak drift time tD of BSA-guest complex” value on BSA [6] is reported as 6.67 ms. Besides, the “experimental collision cross-section (CCS) of BSA-guest complex” value on BSA [6] (standard curve) was 4342 Å2. Also, the “fluorescence of BSA/DNSA-SQ complex on addition of site I ligand DNSA” value on BSA site I and site II (displacement by DNSA) is recorded as “did not result in fluorescence intensity change”. Also, the “fluorescence of BSA/DNSA-SQ complex on addition of site II ligand DP” value at BSA site I and site II (displacement by DP) is on record as “fluorescence intensity increasing”. The “BSA binding site selectivity” value on BSA site I and site II (displacement by site-selective ligands and mass spectra data) was “enters selectively at site I”. Moreover, the “fluorescence change with trypsin” value in the series with trypsin is reported as “no obvious fluorescence change”. In the series on zebrafish embryos/larvae, the “size and shape of treated embryos/larvae compared to untreated” value was “appeared normal in size and shape”; the “toxicity to treated embryos/larvae” value is given as “not toxic”.

These data come from US9920020B2, “Using squaraine dyes as near infrared fluorescent sensors for protein detection” (The University of Akron, priority 2011, dated 2018).
